Experimental data published in patent publication US9695155B2, “Herbicidal substituted pyrimidinyloxy benzene compounds” (E. I. DU PONT DE NEMOURS AND COMPANY, priority 2013, dated 2017).

What was measured:
field violet = assay: Test D preemergence; format: in vivo, Viola arvensis; details: Viola arvensis, pre-emergence; for pest or weed control at 16 g/ha: 16 g ai/ha, scale 0 (no effect) to 100 (complete control), read-out: Plant response rating, Field Violet; for pest or weed control at 31 g/ha: 31 g ai/ha; for pest or weed control at 31 g/ha / pest or weed control at 62 g/ha / pest or weed control at 125 g/ha: scale 0-100, read-out: Plant response rating, Field Violet; for pest or weed control at 62 g/ha: 62 g ai/ha; for pest or weed control at 125 g/ha: 125 g ai/ha
Procedure, shortened: (§1)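 Solvent/surfactant formulations are sprayed pre (silt loam) or post (1–4 leaf plants, 2–18 cm). Plants stay 7–21 days in controlled conditions before a visual 0–100 score is given.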

deadnettle = assay: Test D preemergence; format: in vivo, Lamium amplexicaule; details: Lamium amplexicaule, pre-emergence; for pest or weed control at 16 g/ha: 16 g ai/ha, scale 0 (no effect) to 100 (complete control), read-out: Plant response rating, Deadnettle; for pest or weed control at 31 g/ha: 31 g ai/ha; for pest or weed control at 31 g/ha / pest or weed control at 62 g/ha / pest or weed control at 125 g/ha: scale 0-100, read-out: Plant response rating, Deadnettle; for pest or weed control at 62 g/ha: 62 g ai/ha; for pest or weed control at 125 g/ha: 125 g ai/ha
Excerpt: (§2) Seeds of plant species selected from bluegrass (annual bluegrass, Poa annua), blackgrass (Alopecurus myosuroides), canarygrass (littleseed canarygrass, Phalaris minor), chickweed (common chickweed, Stellaria media), galium (catchweed bedstraw, Galium aparine), bromegrass, downy (downy bromegrass, Bromus tectorum), field poppy (Papaver rhoeas), field violet (Viola arvensis), green foxtail (Setaria viridis), deadnettle (henbit deadnettle, Lamium amplexicaule), Italian ryegrass (Lolium multiflorum), kochia (Kochia scoparia), lambsquarters (Chenopodium album), oilseed rape (Brassica napus), pigweed (Amaranthus retroflexus), chamomile (scentless chamomile, Matricaria inodora), Russian thistle (Salsola kali), speedwell (bird's-eye speedwell, Veronica persica), spring barley (Hordeum vulgare), spring wheat (Triticum aestivum), wild buckwheat (Polygonum convolvulus), wild mustard (Sinapis arvensis), wild oat (Avena fatua), wild radish (Raphanus raphanistrum), windgrass (Apera spica-venti), winter barley (Hordeum vulgare), and winter wheat (Triticum aestivum) were planted into a silt loam soil and treated preemergence with test chemicals formulated in a non-phytotoxic solvent mixture which included a surfactant.
(§3) At the same time, these species were planted in pots containing Redi-Earth® planting medium (Scotts Company, 14111 Scottslawn Road, Marysville, Ohio 43041) comprising spaghnum peat moss, vermiculite, wetting agent and starter nutrients and treated with postemergence applications of the test chemicals formulated in the same manner. Plants ranged in height from 2 to 18 cm (1- to 4-leaf stage). Treated plants and controls were maintained in a controlled growth environment for 7 to 21 days after which time all species were compared to controls and visually evaluated. Plant response ratings, summarized in Table D, are based on a scale of 0 to 100 where 0 is no effect and 100 is complete control. A dash (-) response means no test result.

winter barley [1] = assay: Test D preemergence; format: in vivo, Hordeum vulgare; details: Hordeum vulgare, pre-emergence; for plant injury at 16 g/ha: 16 g ai/ha, scale 0 (no effect) to 100 (complete control), read-out: Plant response rating, Barley, Winter; for plant injury at 31 g/ha: 31 g ai/ha; for plant injury at 31 g/ha / plant injury at 62 g/ha / plant injury at 125 g/ha: scale 0-100, read-out: Plant response rating, Barley, Winter; for plant injury at 62 g/ha: 62 g ai/ha; for plant injury at 125 g/ha: 125 g ai/ha
Procedure, shortened: as §1

spring wheat = assay: Test D preemergence; format: in vivo, Triticum aestivum; details: Triticum aestivum, pre-emergence; for plant injury at 16 g/ha: 16 g ai/ha; for plant injury at 16 g/ha / plant injury at 31 g/ha: scale 0 (no effect) to 100 (complete control), read-out: Plant response rating, Wheat, Spring; for plant injury at 31 g/ha: 31 g ai/ha; for plant injury at 62 g/ha: 62 g ai/ha; for plant injury at 62 g/ha / plant injury at 125 g/ha: scale 0-100, read-out: Plant response rating, Wheat, Spring; for plant injury at 125 g/ha: 125 g ai/ha
Excerpt: as §2, §3

winter wheat = assay: Test D preemergence; format: in vivo, Triticum aestivum; details: Triticum aestivum, pre-emergence; for plant injury at 16 g/ha: 16 g ai/ha; for plant injury at 16 g/ha / plant injury at 31 g/ha: scale 0 (no effect) to 100 (complete control), read-out: Plant response rating, Wheat, Winter; for plant injury at 31 g/ha: 31 g ai/ha; for plant injury at 62 g/ha: 62 g ai/ha; for plant injury at 62 g/ha / plant injury at 125 g/ha: scale 0-100, read-out: Plant response rating, Wheat, Winter; for plant injury at 125 g/ha: 125 g ai/ha
Excerpt: as §2, §3

wild buckwheat = assay: Test D preemergence; format: in vivo, Polygonum convolvulus; details: Fallopia convolvulus, pre-emergence; for pest or weed control at 16 g/ha: 16 g ai/ha, scale 0 (no effect) to 100 (complete control), read-out: Plant response rating, Buckwheat, Wild; for pest or weed control at 31 g/ha: 31 g ai/ha; for pest or weed control at 31 g/ha / pest or weed control at 62 g/ha / pest or weed control at 125 g/ha: scale 0-100, read-out: Plant response rating, Buckwheat, Wild; for pest or weed control at 62 g/ha: 62 g ai/ha; for pest or weed control at 125 g/ha: 125 g ai/ha
Procedure, shortened: as §1

wild oat = assay: Test D preemergence; format: in vivo, Avena fatua; details: Avena fatua, pre-emergence; for pest or weed control at 16 g/ha: 16 g ai/ha, scale 0 (no effect) to 100 (complete control), read-out: Plant response rating, Oat, Wild; for pest or weed control at 31 g/ha: 31 g ai/ha; for pest or weed control at 31 g/ha / pest or weed control at 62 g/ha / pest or weed control at 125 g/ha: scale 0-100, read-out: Plant response rating, Oat, Wild; for pest or weed control at 62 g/ha: 62 g ai/ha; for pest or weed control at 125 g/ha: 125 g ai/ha
Procedure, shortened: as §1

galium = assay: Test D postemergence; format: in vivo, Galium aparine; details: Galium, post-emergence; for pest or weed control at 16 g/ha: 16 g ai/ha, scale 0-100, read-out: Plant response rating, Galium; for pest or weed control at 31 g/ha: 31 g ai/ha; for pest or weed control at 31 g/ha / pest or weed control at 62 g/ha / pest or weed control at 125 g/ha: scale 0 to 100 (0 no effect, 100 complete control), read-out: Plant response rating, Galium; for pest or weed control at 62 g/ha: 62 g ai/ha; for pest or weed control at 125 g/ha: 125 g ai/ha
Procedure, shortened: as §1

spring barley = assay: Test D postemergence; format: in vivo, Hordeum vulgare; details: Hordeum vulgare, post-emergence, Postemergence, scale 0 to 100 (0 no effect, 100 complete control), read-out: Plant response rating, Barley, Spring; for plant injury at 16 g/ha: 16 g ai/ha; for plant injury at 31 g/ha: 31 g ai/ha; for plant injury at 62 g/ha: 62 g ai/ha; for plant injury at 125 g/ha: 125 g ai/ha
Procedure, shortened: as §1

winter barley [2] = assay: Test D postemergence; format: in vivo, Hordeum vulgare; details: Hordeum vulgare, post-emergence, Postemergence, scale 0 to 100 (0 no effect, 100 complete control), read-out: Plant response rating, Barley, Winter; for plant injury at 16 g/ha: 16 g ai/ha; for plant injury at 31 g/ha: 31 g ai/ha; for plant injury at 62 g/ha: 62 g ai/ha; for plant injury at 125 g/ha: 125 g ai/ha
Procedure, shortened: as §1

SMILES	pest or weed control at 16 g/ha (field violet) [%]	pest or weed control at 31 g/ha (field violet) [%]	pest or weed control at 62 g/ha (field violet) [%]	pest or weed control at 125 g/ha (field violet) [%]	pest or weed control at 16 g/ha (deadnettle) [%]	pest or weed control at 31 g/ha (deadnettle) [%]	pest or weed control at 62 g/ha (deadnettle) [%]	pest or weed control at 125 g/ha (deadnettle) [%]	plant injury at 16 g/ha (winter barley [1]) [%]	plant injury at 31 g/ha (winter barley [1]) [%]	plant injury at 62 g/ha (winter barley [1]) [%]	plant injury at 125 g/ha (winter barley [1]) [%]	plant injury at 16 g/ha (spring wheat) [%]	plant injury at 31 g/ha (spring wheat) [%]	plant injury at 62 g/ha (spring wheat) [%]	plant injury at 125 g/ha (spring wheat) [%]	plant injury at 16 g/ha (winter wheat) [%]	plant injury at 31 g/ha (winter wheat) [%]	plant injury at 62 g/ha (winter wheat) [%]	plant injury at 125 g/ha (winter wheat) [%]	other results
FC(F)(F)COc1cnn(-c2ccccc2Oc2ncc(Cl)cn2)c1 [Compound 138, 5-chloro-2-[2-[4-(2,2,2-trifluoroethoxy)-1H-pyrazol-1-yl]phenoxy]pyrimidine]	70	25	70	75	5	5	20	30	0	0	5	15	0	10	15	15	0	5	5	5	pest or weed control at 16 g/ha (wild buckwheat): 60%; pest or weed control at 31 g/ha (wild buckwheat): 35%; pest or weed control at 62 g/ha (wild buckwheat): 55%; pest or weed control at 125 g/ha (wild buckwheat): 75%; pest or weed control at 16 g/ha (wild oat): 0%; pest or weed control at 31 g/ha (wild oat): 0%; pest or weed control at 62 g/ha (wild oat): 0%; pest or weed control at 125 g/ha (wild oat): 0%; pest or weed control at 16 g/ha (galium): 70%; pest or weed control at 31 g/ha (galium): 70%; pest or weed control at 62 g/ha (galium): 75%; pest or weed control at 125 g/ha (galium): 75%; plant injury at 16 g/ha (spring barley): 10%; plant injury at 31 g/ha (spring barley): 10%; plant injury at 62 g/ha (spring barley): 10%; plant injury at 125 g/ha (spring barley): 15%; plant injury at 16 g/ha (winter barley [2]): 5%; plant injury at 31 g/ha (winter barley [2]): 5%; plant injury at 62 g/ha (winter barley [2]): 5%; plant injury at 125 g/ha (winter barley [2]): 10%
FC(F)(F)c1cn(-c2ccccc2Oc2ncc(Cl)cn2)nn1 [Compound 166, 5-chloro-2-[2-[4-(trifluoromethyl)-1H-1,2,3-triazol-1-yl]phenoxy]pyrimidine]	70	100	100	100	70	75	100	100	0	0	35	50	0	0	10	60	0	0	0	25	pest or weed control at 16 g/ha (wild buckwheat): 60%; pest or weed control at 31 g/ha (wild buckwheat): 95%; pest or weed control at 62 g/ha (wild buckwheat): 100%; pest or weed control at 125 g/ha (wild buckwheat): 100%; pest or weed control at 16 g/ha (wild oat): 0%; pest or weed control at 31 g/ha (wild oat): 30%; pest or weed control at 62 g/ha (wild oat): 55%; pest or weed control at 125 g/ha (wild oat): 75%; pest or weed control at 16 g/ha (galium): 70%; pest or weed control at 31 g/ha (galium): 75%; pest or weed control at 62 g/ha (galium): 80%; pest or weed control at 125 g/ha (galium): 90%; plant injury at 16 g/ha (spring barley): 10%; plant injury at 31 g/ha (spring barley): 20%; plant injury at 62 g/ha (spring barley): 30%; plant injury at 125 g/ha (spring barley): 45%; plant injury at 16 g/ha (winter barley [2]): 5%; plant injury at 31 g/ha (winter barley [2]): 15%; plant injury at 62 g/ha (winter barley [2]): 25%; plant injury at 125 g/ha (winter barley [2]): 35%
